Data published in patent US5643927A, “4-p-fluorobenzoyl-1-piperidinyl-propoxy-chromen-4-one derivatives, their preparation and their use in the treatment of psychosis and schizophrenia” (Ferrer Internacional, S.A., priority 1994, dated 1997).
Counter-ions that a name gives are not always drawn. Like-named read-outs stand apart in the source and are kept apart here.

What was measured:
σ receptors = σ receptors (Cavia porcellus, UniProt Q60492); test: biochemical; format: binding
Protocol: (§1) Specific binding to σ, D2, D3, 5H2 and 5HT1a receptors has been tested as follows:
σ receptors: A 2-nM solution of radioactive 3-PPP ((+) [^3 H]3-[3-hydroxyphenyl]-N-(1-propyl)-piperidine), which acts as a specific ligand, was incubated with the membrane corresponding to 40 mg of guinea-pig total brain for 90 min at 25° C. buffered at pH 8.5 with Tris.HCl. Thus, total binding of ligand to membranes was attained. Non-specific binding was then determined by adding a micromolar concentration of unlabelled 3-PPP. […] After the incubation was completed, the samples were filtered through a glass fiber filter and then washed three times with Tris.HCl buffer. The amount of receptor-bound radioactivity was retained on the membrane and determined by liquid scintillation counting.
(§2) Values are expressed as IC50 in molar concentrations.

D2 receptors = D2 receptors (Rattus norvegicus, UniProt P61169); test: biochemical; format: binding
Chain of D2 receptors (P61169 whole entry): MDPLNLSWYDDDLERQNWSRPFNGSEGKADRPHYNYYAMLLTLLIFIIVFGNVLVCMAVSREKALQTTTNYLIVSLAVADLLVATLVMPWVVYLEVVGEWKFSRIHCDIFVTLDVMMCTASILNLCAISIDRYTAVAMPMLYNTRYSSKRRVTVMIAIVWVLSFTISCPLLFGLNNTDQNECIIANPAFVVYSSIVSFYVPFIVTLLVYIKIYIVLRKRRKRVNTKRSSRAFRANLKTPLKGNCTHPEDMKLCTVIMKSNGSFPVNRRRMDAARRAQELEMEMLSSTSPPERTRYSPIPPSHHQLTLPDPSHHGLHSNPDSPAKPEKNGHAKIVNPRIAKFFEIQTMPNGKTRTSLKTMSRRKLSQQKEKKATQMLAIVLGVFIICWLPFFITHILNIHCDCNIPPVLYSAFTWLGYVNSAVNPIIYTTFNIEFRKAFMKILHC
Protocol: as §1
D2 receptors: A 2-nM solution of radioactive spiperone ([^3 H]spiperone), which acts as a specific ligand, was incubated with the membrane corresponding to 20 mg of rat striatum for 20 min at 35° C. buffered at pH 7.4 with Tris.HCl. The non-specific binding was then determined by addition of a micromolar concentration of unlabelled spiperone. […] After the incubation was completed, the sample was filtered through a glass fiber filter and then washed three times with Tris.HCl buffer. The amount of receptor-bound radioactivity was retained on the membrane and determined by liquid scintillation counting.
as §2

D3 receptors = target: T1, D3 receptors (Homo sapiens, UniProt P35462); test: biochemical; format: binding
T1 construct: purchased RBI; host or cells: mouse fibroblasts (CCL 1,3)
T1 sequence (P35462 whole entry): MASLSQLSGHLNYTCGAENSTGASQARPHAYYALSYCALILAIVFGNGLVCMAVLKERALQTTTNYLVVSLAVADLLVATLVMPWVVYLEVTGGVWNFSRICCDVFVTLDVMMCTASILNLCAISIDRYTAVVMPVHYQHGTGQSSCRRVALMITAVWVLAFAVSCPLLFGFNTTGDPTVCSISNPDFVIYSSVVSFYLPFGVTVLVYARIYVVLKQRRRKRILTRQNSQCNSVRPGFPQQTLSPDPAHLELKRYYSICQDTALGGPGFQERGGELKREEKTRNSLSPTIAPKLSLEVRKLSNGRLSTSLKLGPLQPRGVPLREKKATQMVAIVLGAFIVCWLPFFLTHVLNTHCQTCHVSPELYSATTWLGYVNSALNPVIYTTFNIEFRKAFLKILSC
Protocol: as §1
D3 receptors: A 0.1 nM solution of radioactive YM-0951 ([^3 H]YM-0951), which acts as a specific ligand, was incubated with the membrane provided by RBI obtained from mouse fibroblasts (CCL 1,3) for 15 min at 37° C., buffered at pH 7.4 with Tris.HCl. […] After the incubation was completed, the sample was filtered through a glass fiber filter and then washed three times with Tris.HCl buffer. The amount of receptor-bound radioactivity was retained on the membrane and determined by liquid scintillation counting.
as §2

5HT1a receptors = target: T2, 5HT1a receptors (Rattus norvegicus, UniProt P19327); test: biochemical; format: binding
T2 sequence (P19327 1-422): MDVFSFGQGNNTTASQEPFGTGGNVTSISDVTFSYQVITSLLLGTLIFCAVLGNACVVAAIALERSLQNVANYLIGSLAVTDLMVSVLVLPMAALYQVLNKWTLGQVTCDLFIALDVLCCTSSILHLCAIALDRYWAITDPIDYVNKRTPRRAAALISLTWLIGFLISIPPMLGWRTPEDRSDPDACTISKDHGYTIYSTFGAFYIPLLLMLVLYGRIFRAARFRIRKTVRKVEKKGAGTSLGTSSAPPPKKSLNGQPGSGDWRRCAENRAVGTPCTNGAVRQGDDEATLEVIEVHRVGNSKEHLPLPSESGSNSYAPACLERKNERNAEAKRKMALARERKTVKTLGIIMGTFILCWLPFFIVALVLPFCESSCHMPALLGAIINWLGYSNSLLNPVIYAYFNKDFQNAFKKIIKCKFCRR
Protocol: as §1
5HT1a receptors: A 1 nM solution of radioactive […], which acts as a specific ligand, was incubated with the membrane corresponding to 1 mg of rat cortex for 20 min at 35° C. buffered at pH 7.4 with Tris.HCl. Non-specific binding was then determined by addition of a 20 micromolar concentration of unlabelled buspirone. […] After the incubation was completed, the sample was filtered through a glass fiber filter and then washed three times with Tris.HCl buffer. The amount of receptor-bound radioactivity was retained on the membrane and determined by liquid scintillation counting.
as §2

5HT2 receptors = target: T3, 5HT2 receptors (Rattus norvegicus, UniProt P14842); test: 5HT2 receptor binding ([3H]ketanserin displacement); conditions: for specificity over 5HT2 receptors versus D2 receptors (in words): D2 /5HT2 ratio; for IC50: [3H]ketanserin 0.5 nM, rat cortex membrane, 30 min, 35° C., pH 7.4
T3 construct: membrane corresponding to 1 mg of rat cortex; from tissue; host or cells: rat cortex membranes
T3 sequence (P14842 whole entry): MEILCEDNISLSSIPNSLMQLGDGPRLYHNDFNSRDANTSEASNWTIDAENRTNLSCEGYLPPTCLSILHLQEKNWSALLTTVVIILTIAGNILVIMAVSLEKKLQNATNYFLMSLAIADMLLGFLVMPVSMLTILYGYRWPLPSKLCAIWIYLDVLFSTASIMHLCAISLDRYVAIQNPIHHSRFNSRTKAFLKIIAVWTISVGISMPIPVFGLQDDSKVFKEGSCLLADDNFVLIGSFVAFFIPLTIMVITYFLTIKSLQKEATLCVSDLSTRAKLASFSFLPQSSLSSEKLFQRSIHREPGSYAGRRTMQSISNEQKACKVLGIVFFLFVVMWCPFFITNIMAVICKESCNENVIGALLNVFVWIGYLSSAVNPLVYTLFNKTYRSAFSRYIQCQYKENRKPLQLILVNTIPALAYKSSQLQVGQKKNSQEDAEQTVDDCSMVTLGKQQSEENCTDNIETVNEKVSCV
Protocol: as §1
5HT2 receptors: A 0.5 nM solution of radioactive ketanserin ([^3 H]ketanserin), which acts as a specific ligand, was incubated with the membrane corresponding to 1 mg of rat cortex for 30 min at 35° C. buffered at pH 7.4 with Tris.HCl. […] After the incubation was completed, the sample was filtered through a glass fiber filter and then washed three times with Tris.HCl buffer. The amount of receptor-bound radioactivity was retained on the membrane and determined by liquid scintillation counting.
as §2

[1] = system: apomorphine-induced climbing behaviour; test: Test (C): Inhibition of apomorphine-induced climbing behaviour; format: in vivo, Male Swiss mice; conditions: Mus musculus, 1 h; oral, mice; apomorphine 1 mg/kg s.c. after 60 min; climbing assessed after further 60 min
Protocol: One week prior to experiment, animals were kept in our facilities at a temperature of 20°-22° C. and 12/12 h light-dark cycle, and had free access to food and water. Two hours prior to experiment, the animals were placed in individual cages without access to food.
Two additional assessments were performed at 10-min intervals.
The walls of the box were made of translucent methacrylate except one of the lateral surfaces (7.5 cm wide) which was a 3-mm wire mesh. […] If an animal keeps several positions within the 2-min observation, the seconds elapsed in each position will be recorded. Finally, mean scoring was calculated.

[2] = catalepsy in rats after oral administration (extrapyramidal effects); format: in vivo; conditions: rat, in vivo, po
catalepsy = test: as above; format: in vivo; conditions: rats, oral
[3] = animal pharmacological tests (overall statement); conditions: in vivo
[4] = [3H]3-PPP 2 nM, guinea-pig total brain membrane, 90 min, 25° C., pH 8.5, read-out: IC50 (M) σ
[5] = [3H]spiperone 2 nM, rat striatum membrane, 20 min, 35° C., pH 7.4, read-out: IC50 (M) D2
[6] = [3H]YM-0951 0.1 nM, membrane from mouse fibroblasts (CCL 1,3), 15 min, 37° C., pH 7.4, read-out: IC50 (M) D3
[7] = [3H]5-OH-DPAT 1 nM, rat cortex membrane, 20 min, 35° C., pH 7.4, read-out: IC50 (M) 5HT1A

Chain of σ receptors (Q60492 whole entry): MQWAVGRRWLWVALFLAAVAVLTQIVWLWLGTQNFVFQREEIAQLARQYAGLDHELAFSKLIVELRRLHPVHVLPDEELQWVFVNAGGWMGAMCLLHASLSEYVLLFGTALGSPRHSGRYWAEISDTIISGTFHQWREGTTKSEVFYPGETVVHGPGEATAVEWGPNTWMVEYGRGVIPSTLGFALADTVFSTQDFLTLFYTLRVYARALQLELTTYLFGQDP

Structure (SMILES) | IC50 (σ receptors; [4]) [M] | IC50 (D2 receptors; [5]) [M] | IC50 (D3 receptors; [6]) [M] | IC50 (5HT1a receptors; [7]) [M] | IC50 (5HT2 receptors) [nM] | further results
Cl.O=C(c1ccc(F)cc1)C1CCN(CCCOc2ccc3c(=O)ccoc3c2)CC1 [Example 1, 7-[3-(4-p-fluorobenzoyl-1-piperidinyl)propoxy]chromen-4-one hydrochloride] | 1.46e-08 | 4.36e-07 | 6.88e-08 | 1.56e-06 | 17.1 | activity on D3 receptors (in words) (D3 receptors; compared with 7-OH-DPAT): active on D3 receptors in the same order as 7-OH-DPAT; specificity over 5HT2 receptors versus D2 receptors (in words) (5HT2 receptors; hydrochloride): the most specific over 5HT2 receptors versus D2 receptors; specificity over 5HT2 receptors versus D2 receptors (in words) (5HT2 receptors; listed as Ex. 1, hydrochloride): surpasses BMY-14802 and risperidone in D2 /5HT2 ratio
Cc1cc(=O)c2ccc(OCCCN3CCC(C(=O)c4ccc(F)cc4)CC3)cc2o1 [Example 2, 7-[3-(4-p-fluorobenzoyl-1-piperidinyl)propoxy]-2-methyl-chromen-4-one hydrochloride] | 7.99e-07 | 3.74e-07 | 8.55e-07 | 1.57e-06 | 56.6 | –
OC(CCCN1CCN(c2ncc(F)cn2)CC1)c1ccc(F)cc1 (centres unmarked) [BMY-14802, reference compound] | – | 1.59e-05 | – | – | 1150 | –
Cc1coc2cc(OCCCN3CCC(C(=O)c4ccc(F)cc4)CC3)ccc2c1=O [Example 3, 7-[3-(4-p-fluorobenzoyl-1-piperidinyl)propoxy]-3-methyl-chromen-4-one hydrochloride] | – | – | – | – | 82 | IC50 (σ receptors): 2.43e-07 M; IC50 (D2 receptors): 1.29e-07 M; IC50 (D3 receptors): 1.94e-07 M; IC50 (5HT1a receptors): 7.64e-07 M
Cl.O=C(c1ccc(F)cc1)C1CCN(CCCOc2ccc3c(=O)c(CO)coc3c2)CC1 [Example 4, 3-Hydroxymethyl-7-[3-(4-p-fluorobenzoyl-1-piperidinyl)propoxy]-chromen-4-one hydrochloride] | – | – | – | – | 47.4 | D2 /5HT2 (5HT2 receptors; ratio of IC50 D2 to IC50 5HT2): 4.01; ED50 [1]: 3.2 mg/kg; TD50 [2]: 15 mg/kg; extrapyramidal effects (in words) (catalepsy): did not show very important extrapyramidal effects; activity in animal pharmacological tests (in words) [3]: very active in animal pharmacological tests
